Experimental data: patent publication US9145352B2, “Quaternary N-(halomethyl) ammonium salts as therapeutic agents” (UNIVERSIDAD DE CALDAS, priority 2012, dated 2015)
Read-outs that look alike come from different tables or passages of the source. Each block holds one compound with its values, some of them ahead of it.

Experiments:
[1] = test system: cutaneous leishmaniasis lesion; assay: golden hamster model for cutaneous leishmaniasis; assay type: in vivo; conditions: topical application in aqueous buffer (neutral pH) daily for ten days
Protocol: It was decided then to carry out a preliminary in vivo animal study according to standard practices using the golden hamster model for cutaneous leishmaniasis, using the compounds with the better profile as therapeutic agents against leishmaniasis. For that purpose the in vivo effectiveness of compounds 3b, 13b and 14c were tested FIG. 6.
It was decided then to carry out a small in vivo animal study according to standard practices using the golden hamster model for cutaneous leishmaniasis. For that purpose the in vivo effectiveness of compounds 3b, 13b and 14c were tested. Treatment consisted of a topical application of the compound suspended in an aqueous buffer (neutral pH) daily for ten days.

[2] = test system: axenic amastigotes of L. (V) panamensis; assay: in vitro effectiveness against axenic amastigotes of L. (V) panamensis; assay type: cell-based
From the text: Then, a series of compounds analogous to compound 3 (characterized by a tail G being a diarylalkenyl moiety) were synthesized in order to assess their in vitro effectiveness against L. (V) panamensis, a pathogenic species which causes human mucocutaneous leishmaniasis. Other halogenated analogs of choline were also synthesized and included in this in vitro effectiveness study. FIG. 2 illustrates the compounds evaluated for their in vitro effectiveness against axenic amastigotes of L. (V) panamensis.
The table shown in FIG. 7 contains the EC50 values (molar amount of compound that kills 50% of parasites in sample) obtained against axenic amastigotes of L. (V) panamensis. […] N-(HALOMETHYL) AMMONIUM SALTS AS […] AGENTS were compared with the respective non-halogenated (i.e. N,N,N-trimethyl quaternary ammonium salts) and with two compounds commonly used to treat leishmaniasis (meglumine antimoniate and amphotericin B).

[3] = test system: choline kinase of L. (L) infantum; assay: kinetic studies with choline kinase; assay type: biochemical; conditions: lowering its catalytic efficiency
From the text: (§1) Phosphatidyl choline can be synthesized by the parasite following the traditional Kennedy pathway (Zhang and Beverley, 2010), in which choline is converted to phosphatidyl choline via a sequence of steps, each catalyzed by a specific enzyme. The first step involves the phosphorylation of choline with the enzyme choline kinase.

[4] = test system: promastigotes of L. tarentolae; assay: in vitro uptake of choline by promastigotes; assay type: cell-based
From the text: as §1

[5] = test system: promastigotes of L. tarentolae; assay: in vitro production of phosphatidyl choline by parasites; assay type: cell-based
From the text: as §1

[6] = test system: amastigotes of L. (V) panamensis that have infected macrophage cells; assay: in vitro effectiveness against L. (V) panamensis amastigotes that have infected macrophage cells; assay type: cell-based
Protocol: Given that Leishmania parasites are known to infect monocyte cells, mostly macrophages and neutrophils, the in vitro effectiveness of some of the compounds was also tested on L. (V) panamensis in the amastigote stage that have been set to infect macrophage cells. FIG. 5 contains the list of compounds evaluated.
On the other hand, the results of the in vitro activity study of some […] N-(HALOMETHYL) AMMONIUM SALTS AS […] AGENTS shown in FIG. 5 against infected macrophage cells with Leishmania panamesis are shown in FIG. 8.

Indian visceral disease = conditions: cited from earlier work
Chagas disease = conditions: given soon after infection at the onset of the acute phase; cited from earlier work
L. major promastigotes = conditions: cited from earlier work

Compound: C[N+](C)(CCl)CCC=C(c1ccccc1)c1ccccc1 [Compound 13b]
- cure of animals [1]: cure of the majority of the animals

- inhibition of choline kinase [3]: able to inhibit this enzyme
Compound: C[N+](C)(CI)CCCCC=C(c1ccccc1)c1ccccc1 [Compound 14a]
- relative effectiveness against axenic amastigotes of L. (V) panamensis ([2]; FIG. 7): the most effective
- uptake of choline by promastigotes [4]: interferes with the in vitro uptake of choline
- production of phosphatidyl choline [5]: inhibits the in vitro production of phosphatidyl choline

- EC50 [2]: 0.041 ± 0.001 µM
Compound: C[C@@H]1[C@H](O)[C@@H](C)/C=C/C=C/C=C/C=C/C=C/C=C/C=C/[C@H](O[C@@H]2O[C@H](C)[C@@H](O)[C@H](N)[C@@H]2O)C[C@@H]2O[C@](O)(C[C@@H](O)C[C@@H](O)[C@H](O)CC[C@@H](O)C[C@@H](O)CC(=O)O[C@H]1C)C[C@H](O)[C@H]2C(=O)O [amphotericin B]
- EC50 against infected macrophage cells with L. (V) panamensis [6]: 0.05 ± 0.001 µg/mL
- effective against the Indian visceral disease (Indian visceral disease; dose of 5-10 mg/kg): 90%
- effective against the Indian visceral disease (Indian visceral disease; total dose of 15 mg/kg body weight): 100%

Compound: O=C(Cn1ccnc1[N+](=O)[O-])NCc1ccccc1 [benznidazole]
- effective in curing the disease (Chagas disease): ~100%

Compound: CCCCCCCCCCCC[N+](C)(C)C.[Br-] [dodecyltrimethyl ammonium bromide]
- growth of L. major promastigotes (L. major promastigotes): inhibit the growth

Compound: CCCCCCCCCCCCCCCCCC[N+](C)(C)C.[Br-] [octadecyltrimethyl ammonium bromide]
- growth of L. major promastigotes (L. major promastigotes): inhibit the growth

Compound: meglumine antimoniate
- EC50 [2]: 312 ± 18.6 µM
- EC50 against infected macrophage cells with L. (V) panamensis [6]: 6.33 ± 0.86 µg/mL
